Among the data in ChEMBL document CHEMBL1150998, “Enzymatic resolution of AMPA by use of -chymotrypsin” (Bioorg Med Chem Lett, 1993) are IC50 and EC50 values, retold here.

Test [1] addresses Glutamate receptor ionotropic, AMPA (Rattus norvegicus, UniProt P19490+P19491+P19492+P19493). The experiment in a line: Tested for the inhibitory activity of against Ionotropic glutamate receptor AMPA by [3H]- AMPA binding assay. The format is protein-complex assay.
For a further test, the species on record is Rattus norvegicus. Description: Tested in vitro for the dose response curve in rat cortical wedge preparation.

Take `CCOC(=O)C(N)Cc1c(OCC)noc1C` (stereo not drawn): in test [1], the IC50 was over 100 µM.
Regarding `Cc1onc(O)c1CC(N)C(=O)O` (single isomer, unassigned; form 1), the midpoint of the response in the test filed under Rattus norvegicus, the EC50, lay at 3.8 µM.
The compound `Cc1onc(O)c1CC(N)C(=O)O` (single isomer, unassigned; form 2) returned an EC50 in the test listed under Rattus norvegicus of 580 µM.
